According to patent US20150119267A1, “INHIBITION OF COLONY STIMULATING FACTOR-1 RECEPTOR SIGNALING FOR THE TREATMENT OF BRAIN CANCER” (SLOAN-KETTERING INSTITUTE FOR CANCER RESEARCH, priority 2012, published 2015):

System: Mrc1/CD206
Experiment: Mrc1/CD206 expression in BMDMs (flow cytometry, qRT-PCR)
Assay type: cell-based, mouse
Conditions: in vitro, GCM
Procedure: Media that had been conditioned by glioma tumor cell lines grown in serum free media for 24 hours was passed through 0.22 μm filters to remove cellular debris, and is referred to herein as glioma cell-conditioned media (GCM). GCM was used to stimulate differentiated C57BL/6 WT or β-actin-GFP^+ BMDMs. Control macrophages received fresh media containing 10% FBS and 10 ng/ml recombinant mouse CSF-1.
For mouse primary glioma cultures (containing a mixed population of tumor cells, TAMs, astrocytes etc.; see FIG. 15), 1×10^6 cells were cultivated in DMEM+10% FBS in the presence of the CSF-1R inhibitor or DMSO as vehicle (n=6 independently isolated cultures). For BMDMs, 1×10^6 cells were cultivated in DMEM supplemented with recombinant mouse CSF-1 or GCM in the presence of the CSF-1R inhibitor or DMSO as vehicle. After 48 hours, cells were scraped and washed with FACS buffer. Cells were counted and incubated with 1 μl of Fc Block (BD Pharmingen) per 10^6 cells for at least 15 minutes at 4° C. Cells were then stained with CD45 and CD11b antibodies (Table 7) for 10 minutes at 4° C. and washed with FACS buffer. Cells were fixed and permeabilized using the BD Cytofix/Cytoperm™ kit (BD Biosciences) according to the manufacturer's instructions. Subsequently cells were stained with anti-CD206 antibody (Table 7). […]

CNC(=O)c1cc(Oc2ccc3nc(N[C@@H]4CCCC[C@H]4O)sc3c2)ccn1 [BLZ945]
expression of Mrc1/CD206 in BMDMs: downregulates
